# Measured values published in US20220143183A1, “PHOTOSWITCHABLE PROTACS AND SYNTHESIS AND USES THEREOF” (New York University, priority 2019, published 2022).
# Experiments:
# BRD4 = BRD4 (Homo sapiens, UniProt O60885); experiment: Western blot of BRD4 levels in RS4;11 cells; assay type: cell-based; parameters: endogenous in cells; host or cells: RS4;11 (ATCC CRL-1873); settings: 4 h
# Experimental: Next, the light dependence of targeted protein degradation was analyzed in RS4;11 cells by western blot analysis of the BET proteins BRD2-4 (FIG. 5). To this end, cells were treated with increasing concentrations of our lead compound, PHOTAC-I-3, for 4 h and pulse-irradiated with 390 nm light (100 ms every 10 s). […] The cereblon-dependent degradation was confirmed by a competition experiment (FIG. 5E), and further validated by siRNA knockdown of cereblon (FIG. 13).
# Western Immunoblot Analysis. Rabbit monoclonal Antibodies for BRD4 (#13440), β-Actin (#4970) c-Myc (#5605) and Anti-rabbit IgG, HRP-linked Antibody (#7074) were purchased from Cell Signalling Technologies.
# (§1) Cells were incubated with different concentrations of selected compounds. They were placed in a light-proof box and preirradiated for 1 min at 390 nm followed by 100 ms pulses every 10 s or were kept in the dark for 4 h.
# (§2) Cultured cells were collected by centrifugation and washed twice with cold PBS. The supernatant was removed and each cell pellet was lysed in 100 μL NP40-Cell-Lysis Buffer+0.1% SDS+1 mM PMSF+ protease inhibitor cocktail (Sigma Aldrich) for 30 min on ice, with vortexing at 10-minute intervals. Afterwards, cells were centrifuged at 13.000 rpm for 10 min at 4° C. Samples were stored on ice and the supernatant was collected for protein concentration determination using a Thermofisher Scientific Pierce™ Coomassie Plus (Bradford) Assay Kit.
# (§3) The samples were diluted each with 5 μL Laemmli sample buffer Invitrogen (NuPAGE LDS Sample Buffer 4×) and 1 μL DTT, heated at 95° C. for 5 min. Respectively 20 μL of each sample was loaded in a lane of a Bio-Rad Mini-PROTEAN TGX precast Gel, 4-20%, used with tris-glycine SDS Running buffer. The gel ran 5 min at 50 V, then 35 min at 140 V. Next step was the electrotransfer to a polyvinylidene difluoride (PVDF) membrane which was carried out using an iBlot™ 2 Dry Blotting System set to the standard program. After the transfer, the membrane was washed with 25 mL TB ST for 5 min and subsequent incubated in 25 mL of blocking buffer (1×TBST+5% nonfat dry milk, Blotto, Santa Cruz Biotechnology) for 1 h at room temperature. The membrane was washed three times for 5 min each with 15 mL of TBST and incubated in a 10 mL antibody dilution buffer with gentle agitation at 4° C. overnight (Actin: 1:1000; c-MYC: 1:1000; BRD4: 1:1000). The next day, the membrane was washed again three times for 5 min each with 15 mL TBST, followed by incubation with anti-rabbit, HRP-linked antibody (1:2000) in 10 mL blocking buffer with gentle agitation for 1 h at room temperature. Afterwards, the membrane was washed three times for 5 min each with 15 mL TBST and then incubated in 10 mL of Clarity Max Western ECL Substrate solution for 5 min. Chemoluminescence imaging was performed on a Bio-Rad ChemiDoc™ Imaging System.
# (§4) LED illumination. For illumination of the cells we used the cell disco system as previously described in the literature^[25]. 390 nm 5 mm LEDs were purchased from Roithner Lasertechnik. Cells were preirradiated for 1 min at 390 nm, followed by 100 ms pulses every 10 s in 96- or 6-well plates.
# RS4;11 lymphoblast cells = experiment: Cell viability assay (Promega MTS), dark or pulsed irradiation; assay type: cell-based, human; settings: 72 h, dark vs pulsed 390 nm irradiation
# Experimental: Optical control of BRD2-4 with PHOTACs. To assess the biological activity of the PHOTACs, their effect on the viability of RS4;11 lymphoblast cells was tested. Cells were treated in a 96-well plate with increasing concentrations of PHOTACs and were either irradiated with 390 nm light pulses (100 ms every 10 s) for 72 h or incubated with the compound in the dark. Subsequently, cell viability assays (Promega MTS) were performed, as previously described.
# Cell culture. The human acute lymphoblastic leukemia RS4;11 (ATCC® CRL-1873™) cell line was purchased from the American Type Culture Collection and cultured in RPMI1640 medium (Gibco) with 10% fetal bovine serum (FBS) and 1% penicillin/streptomycin (PS) in a humidified incubator at 37° C. with 5% CO2 in air. Cells were divided every 2-3 days and the concentration was maintained between 1×10^5 and 1×10^6 cells/mL. For the experiments compounds were serially diluted in RPMI160 without the dye phenol red (Gibco) to reduce the influence of the dye by absorption. Azobenzene stocks and dilutions were strictly kept in the dark and prepared under red light conditions.
# Colorimetric MTT Assays. The activity of dehydrogenase enzymes in metabolically active cells, as a quantitative measurement for cytotoxicity and proliferation, was determined by colorimetric measurement of the reduction of [3-(4,5-dimethylthiazol-2-yl)-5-(3-carboxymethoxyphenyl)-2-(4-sulfophenyl)-2H-tetrazolium (MTS) to formazan. The absorbance of formazan at 490 nm was measured on a FLUOstar Omega microplate reader (BMG Labtech).
# Cells were treated with different concentrations, ranging from 10 μM to 1 nM, of our compounds and incubated on a 96-well plate for 72 h. They were placed in light-proof boxes and exposed to the lighting conditions specified in the experiment for 72 h. Next, 10 μL of Promega CellTiter 96® AQueous One Solution Reagent was added to each well and incubated for further 4-7 hours. The absorbance at 490 nm was then recorded with a 96-well plate reader.
# as §4
# FKBP12 = target: T1, FKBP12 (Homo sapiens, UniProt P62942); experiment: Immunoblot of FKBP12 levels in RS4;11 cells; assay type: cell-based; settings: for FKBP12 levels: 390 nm pulse irradiation (100 ms every 10 s); for hook effect in FKBP12 degradation: 4 h, different concentrations; for FKBP12 degradation: in the dark; for FKBP12 degradation with MLN4924: in the presence of MLN4924; for light activation among compounds targeting FKBP12: light vs dark
# T1 construct: endogenous in cells; host or cells: RS4;11 (ATCC CRL-1873)
# Experimental: FIG. 6 depicts optical control of FKBP12 degradation. A) Immunoblot analysis of FKBP12 after treatment of RS4;11 cells with PHOTAC-II-5 for 4 h at different concentrations. Cells were either irradiated with pulses of 390 nm light (left, 100 ms every 10 s) or kept in the dark (right). B) Time course of FKBP12 degradation visualized by immunoblotting. RS4;11 cells were treated with PHOTAC-II-5 (100 nM) and collected at the indicated time points. C) Immunoblot analysis of FKBP12 after treatment of RS4;11 cells with PHOTAC-II-6 for 4 h at different concentrations. Cells were either irradiated with pulses of 390 nm light (left, 100 ms every 10 s) or kept in the dark (right). D) Time course of FKBP12 degradation visualized by immunoblotting. RS4;11 cells were treated with PHOTAC-II-6 (100 nM) and collected at the indicated time points.
# FIG. 15 depicts FKBP12 immunoblots in RS4;11 cells. […] B) Degradation of FKBP12. Immunoblot analysis of FKBP12 after treatment of RS4;11 cells with PHOTAC-II-1 for 4 h at different concentrations. Cells were either irradiated with 100 ms pulses of 390 nm light every 10 s (left) or kept the dark (right). C) Time course of FKBP12 degradation visualized by immunoblotting.
# Amongst the molecules tested, PHOTAC-II-5 and PHOTAC-II-6 turned out to be the most useful, and the biological investigations have been focused on these molecules (for PHOTACs-II-1-4, see FIG. 16). […] The degradation was slower than in the case of BET proteins, but between 6 and 12 hours the protein was largely absent from the cell lysates (FIG. 6B). […] The time course of FKBP12 degradation by PHOTAC-II-6 was similar to the one observed with PHOTAC-II-5 (FIG. 6D).
# as §1, §2, §3
# LED illumination. For illumination of the cells we used the cell disco system as previously described in the literature^[25]. […]
# T1 sequence (P62942 whole entry): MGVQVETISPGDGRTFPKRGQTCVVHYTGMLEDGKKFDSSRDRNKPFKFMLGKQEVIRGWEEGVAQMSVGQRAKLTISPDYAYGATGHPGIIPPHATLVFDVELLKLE
structure (smiles),measurement,setting,value
"COc1cc(/N=N/c2cccc3c2CN(C2CCC(=O)N(C)C2=O)C3=O)cc(OC)c1OCC(=O)NCCCCNC(=O)C[C@@H]1N=C(c2ccc(Cl)cc2)c2c(sc(C)c2C)-n2c(C)nnc21 (stereo partly drawn) [Me-PHOTAC-I-3, 2-((S)-4-(4-chlorophenyl)-2,3,9-trimethyl-6H-thieno[3,2-f][1,2,4]triazolo[4,3-a][1,4]diazepin-6-yl)-N-(4-(2-(2,6-dimethoxy-4-((E)-(2-(1-methyl-2,6-dioxopiperidin-3-yl)-1-oxoisoindolin-4-yl)diazenyl)phenoxy)acetamido)butyl)acetamide]",BRD4 levels,BRD4; 390 nm pulses (100 ms every 10 s),inactive control
"Cc1sc2c(c1C)C(c1ccc(Cl)cc1)=N[C@@H](CC(=O)Nc1ccc(/N=N/c3ccc(NC(=O)COc4cccc5c4C(=O)N(C4CCC(=O)NC4=O)C5=O)cc3)cc1)c1nnc(C)n1-2 (stereo partly drawn) [PHOTAC-I-10, 2-((S)-4-(4-chlorophenyl)-2,3,9-trimethyl-6H-thieno[3,2-f][1,2,4]triazolo[4,3-a][1,4]diazepin-6-yl)-N-(4-((E)-(4-(2-((2-(2,6-dioxopiperidin-3-yl)-1,3-dioxoisoindolin-4-yl)oxy)acetamido)phenyl)diazenyl)phenyl)acetamide]",light dependence of activity in viability assay,RS4;11 lymphoblast cells,light-dependent behavior
same,concentration at which robust photodegradation of BRD4 was found,BRD4; 390 nm pulses,≤ 10 nM
same,hook effect in BRD4 degradation,"BRD4; different concentrations, 390 nm",clear hook-effect
"CCC(C)(C)C(=O)C(=O)N1CCCC[C@H]1C(=O)O[C@H](CCc1ccc(OC)c(OC)c1)c1cccc(OCC(=O)NCCNC(=O)COc2ccc(/N=N\c3cccc4c3CN(C3CCC(=O)NC3=O)C4=O)cc2)c1 (stereo partly drawn) [PHOTAC-II-5, (1R)-3-(3,4-dimethoxyphenyl)-1-(3-(2-((2-(2-(4-((Z)-(2-(2,6-dioxopiperidin-3-yl)-1-oxoisoindolin-4-yl)diazenyl)phenoxy)acetamido)ethyl)amino)-2-oxoethoxy)phenyl)propyl (25)-1-(3,3-dimethyl-2-oxopentanoyl)piperidine-2-carboxylate]",FKBP12 levels,FKBP12,pronounced effect on FKBP12 levels
same,hook effect in FKBP12 degradation,FKBP12,pronounced “hook effect”
same,FKBP12 degradation,FKBP12,no degradation could be observed in the dark
same,FKBP12 degradation with MLN4924,FKBP12,inactive
same,light activation among compounds targeting FKBP12,FKBP12,largest light activation
"CCC(C)(C)C(=O)C(=O)N1CCCC[C@H]1C(=O)O[C@H](CCc1ccc(OC)c(OC)c1)c1cccc(OCC(=O)NCCCNC(=O)COc2c(OC)cc(/N=N\c3cccc4c3CN(C3CCC(=O)NC3=O)C4=O)cc2OC)c1 (stereo partly drawn) [PHOTAC-II-1, (1R)-3-(3,4-dimethoxyphenyl)-1-(3-(2-((3-(2-(4-((2-(2,6-dioxopiperidin-3-yl)-1-oxoisoindolin-4-yl)diazenyl)-2,6-dimethoxyphenoxy)acetamido)propyl)-amino)-2-oxoethoxy)phenyl)propyl-(2S)-1-(3,3-dimethyl-2-oxopentanoyl)-piperidine-2-carboxylate]",FKBP12 levels,FKBP12,"slow, but sustained FKBP12 degradation over time"
same,FKBP12 degradation,FKBP12,not when kept in the dark
"CCC(C)(C)C(=O)C(=O)N1CCCC[C@H]1C(=O)O[C@H](CCc1ccc(OC)c(OC)c1)c1cccc(OCC(=O)Nc2ccc(/N=N/c3ccc(NC(=O)COc4cccc5c4C(=O)N(C4CCC(=O)NC4=O)C5=O)cc3)cc2)c1 (stereo partly drawn) [PHOTAC-II-6, (1R)-3-(3,4-dimethoxyphenyl)-1-(3-(2-((4-((E)-(4-(2-((2-(2,6-dioxopiperidin-3-yl)-1,3-dioxoisoindolin-4-yl)oxy)acetamido)phenyl)diazenyl)phenyl)amino)-2-oxoethoxy)phenyl)propyl (2S)-1-(3,3-dimethyl-2-oxopentanoyl)piperidine-2-carboxylate]",FKBP12 levels,FKBP12,light-dependent degradation
same,hook effect in FKBP12 degradation,FKBP12,pronounced “hook effect”
same,FKBP12 degradation,FKBP12,slight dark activity
same,FKBP12 degradation with MLN4924,FKBP12,inactive
same,light activation among compounds targeting FKBP12,FKBP12,largest light activation
